Measured values published in the supplement of paper PMC10307832.

Assays:
Test in all cases: relative viability (nuclei count vs DMSO), 5 days (fraction); higher = more cells survive
Tipifarnib + Palbociclib = compound: Cn1cncc1[C@@](N)(c1ccc(Cl)cc1)c1ccc2c(c1)c(-c1cccc(Cl)c1)cc(=O)n2C [Tipifarnib] + CC(=O)c1c(C)c2cnc(Nc3ccc(N4CCNCC4)cn3)nc2n(C2CCCC2)c1=O [Palbociclib] (partner 0.5 µM)
Procedure, shortened: (§1)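 Lung cancer cell lines, seeded in 1536-well plates, were treated the following day by pin tool with a single drug or with five library-drug doses (not always all listed) in √10 steps on top of a fixed anchor-drug dose. Cells were fixed and nuclei stained in one step after 5 days, and nuclei were counted. Relative viability is the nuclei count for treated wells divided by that for vehicle wells, reported as medians of duplicate plates.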

Tipifarnib + Luminespib = compound: Cn1cncc1[C@@](N)(c1ccc(Cl)cc1)c1ccc2c(c1)c(-c1cccc(Cl)c1)cc(=O)n2C [Tipifarnib] + CCNC(=O)c1noc(-c2cc(C(C)C)c(O)cc2O)c1-c1ccc(CN2CCOCC2)cc1 [Luminespib] (partner 0.01 µM)
Procedure, shortened: as §1

Tipifarnib + OSI-027 = compound: Cn1cncc1[C@@](N)(c1ccc(Cl)cc1)c1ccc2c(c1)c(-c1cccc(Cl)c1)cc(=O)n2C [Tipifarnib] + COc1cccc2cc(-c3nc([C@H]4CC[C@H](C(=O)O)CC4)n4ncnc(N)c34)[nH]c12 [OSI-027] (partner 0.5 µM)
Procedure, shortened: as §1

Tipifarnib + Pictilisib = compound: Cn1cncc1[C@@](N)(c1ccc(Cl)cc1)c1ccc2c(c1)c(-c1cccc(Cl)c1)cc(=O)n2C [Tipifarnib] + CS(=O)(=O)N1CCN(Cc2cc3nc(-c4cccc5[nH]ncc45)nc(N4CCOCC4)c3s2)CC1 [Pictilisib] (partner 1 µM)
Procedure, shortened: as §1

| Cell Line | relative viability (Tipifarnib + Palbociclib; first compound 0.01 µM) | relative viability (Tipifarnib + Palbociclib; first compound 0.03162 µM) | relative viability (Tipifarnib + Palbociclib; first compound 0.1 µM) | relative viability (Tipifarnib + Palbociclib; first compound 0.3162 µM) | relative viability (Tipifarnib + Palbociclib; first compound 1 µM) | relative viability (Tipifarnib + Luminespib; first compound 0.01 µM) | relative viability (Tipifarnib + Luminespib; first compound 0.03162 µM) | relative viability (Tipifarnib + Luminespib; first compound 0.1 µM) | relative viability (Tipifarnib + Luminespib; first compound 0.3162 µM) | relative viability (Tipifarnib + Luminespib; first compound 1 µM) | relative viability (Tipifarnib + OSI-027; first compound 0.01 µM) | relative viability (Tipifarnib + OSI-027; first compound 0.03162 µM) | relative viability (Tipifarnib + OSI-027; first compound 0.1 µM) | relative viability (Tipifarnib + OSI-027; first compound 0.3162 µM) | relative viability (Tipifarnib + OSI-027; first compound 1 µM) | relative viability (Tipifarnib + Pictilisib; first compound 0.01 µM) | relative viability (Tipifarnib + Pictilisib; first compound 0.03162 µM) | relative viability (Tipifarnib + Pictilisib; first compound 0.1 µM) | relative viability (Tipifarnib + Pictilisib; first compound 0.3162 µM) | relative viability (Tipifarnib + Pictilisib; first compound 1 µM) |
| --- | --- | --- | --- | --- | --- | --- | --- | --- | --- | --- | --- | --- | --- | --- | --- | --- | --- | --- | --- | --- |
| LCLC-103H | 0.483 | 0.384 | 0.491 | 0.411 | 0.571 | 0.991 | 0.892 | 0.693 | 0.662 | 0.521 | 0.383 | 0.445 | 0.372 | 0.363 | 0.31 | 0.566 | 0.606 | 0.617 | 0.491 | 0.469 |
| LOU-NH91 | 0.494 | 0.516 | 0.592 | 0.541 | 0.58 | 0.321 | 0.336 | 0.323 | 0.322 | 0.323 | 0.698 | 0.589 | 0.5 | 0.485 | 0.467 | 0.517 | 0.446 | 0.499 | 0.501 | 0.388 |
| NCI-H1650 | 0.295 | 0.211 | 0.243 | 0.205 | 0.183 | 0.19 | 0.208 | 0.189 | 0.203 | 0.184 | 0.407 | 0.17 | 0.305 | 0.26 | 0.196 | 0.409 | 0.228 | 0.337 | 0.265 | 0.191 |
| NCI-H3122 | 0.193 | 0.189 | 0.196 | 0.179 | 0.14 | 0.0874 | 0.0613 | 0.0958 | 0.0893 | 0.0812 | 0.949 | 0.568 | 0.384 | 0.233 | 0.225 | 0.6 | 0.489 | 0.442 | 0.347 | 0.27 |
| PC-3 [JPC-3] | 0.458 | 0.553 | 0.642 | 0.497 | 0.495 | 0.74 | 0.694 | 0.66 | 0.458 | 0.409 | 0.751 | 0.67 | 0.598 | 0.343 | 0.324 | 0.811 | 0.651 | 0.651 | 0.44 | 0.508 |
| NCI-H1651 | 0.502 | 0.52 | 0.544 | 0.502 | 0.511 | 0.921 | 0.934 | 0.797 | 0.684 | 0.753 | 0.65 | 0.729 | 0.673 | 0.558 | 0.456 | 0.632 | 0.566 | 0.562 | 0.512 | 0.319 |
| NCI-H2087 | 0.212 | 0.233 | 0.23 | 0.11 | 0.193 | 0.185 | 0.154 | 0.165 | 0.141 | 0.152 | 0.464 | 0.205 | 0.232 | 0.161 | 0.164 | 0.796 | 0.682 | 0.587 | 0.427 | 0.385 |
